# Reference: US20110201105A1, “LACTATION-ASSOCIATED POLYPEPTIDES” (Dairy Australia Limited, priority 2007, published 2011)
# What was measured:
# [1] = tested on: HSC-2 oral epithelial cells; experiment: Cell viability assay to assess anti- and pro-apoptotic effects (vinblastine, Alamar Blue); format: cell-based; settings: HSC-2 cells
# Description: Plasmids containing Tammar wallaby LAMs were directionally cloned into the expression vector pCMV Sport 6.0, and then transfected into the human kidney cell line HK293. A total of 1 μg of LAM-containing plasmid DNA and 10 ng of pEGFP-C1 plasmid was introduced into 70% confluent HK293 cells in 2 cm^2 wells containing 500 ul of opti-MEM-1 media. Transfection success was assessed by observing green fluorescence of cells by fluorescent microscopy. After 48 hours conditioned media containing the secreted polypeptide was collected and frozen at −20° C. The media containing the secreted polypeptides was then used directly in a variety of bioactivity assays. For the assays described below, samples of secreted polypeptides were aliquoted into individual wells of 96 or 384 well plates and stored, prior to assaying, either frozen or lyophilized.
# A negative control created by transfection with an insertless vector was used in all assays. For the assays described in Examples 4A, 4B, 4C and 4D results for samples were in the form of relative fluorescence units (RFU) as described herein. […] In some cases, RFU less than two standard deviations from the mean were considered significant if the LAM sample in question produced a positive result in another assay.
# Vinblastine is a commonly used cytotoxic agent used in chemotherapy. It induces apoptosis in a wide variety of cell types. Caspase activation and DNA fragmentation are hallmarks of the apoptotic process.
# Aliquots of the secreted polypeptide samples in 96 well plates were pipetted onto HSC-2 oral epithelial cells and the cells left for 24 hours. After this time, the cells were treated with vinblastine to induce apoptosis. After a further 48 hours, the cells were analyzed for survival using a vital dye, namely Alamar Blue (resazurin) fluorescent dye (TGR BioSciences Pty Ltd, Adelaide, Australia). This dye method is a TGR proprietary assay technology and as such would be known by a person skilled in the art. Internal controls for induction of cell death via apoptosis as well as assay performance were also included on each plate. Cell survival measurements with this technique reflected the degree of apoptosis.
# [2] = tested on: MDA-MB-231 cells; experiment: MDA-MD-231 Matrigel outgrowth assay; format: cell-based; settings: MDA-MB-231 cells on Matrigel, after 5 days, compared to control (OPTIMEM)
# Description: FIG. 14: Matrigel outgrowth assay. Monolayers of cells (MDA-MD-MB231) were grown to 80% confluence and collected during log phase. 5×10^3 cells were added per well (96 well format) on top of preset Matrigel (50 ul). 50 ul of bioactive supematant was added per well. Colony outgrowth was monitored over the course of the experiment and photographed after 2 (FIG. 14A) and 5 (FIG. 14B) days.
# Monolayers of cells (MDA-MD-MB231) were grown in DMEM+10% FCS to 80% confluence and collected during log phase. Cells were removed from plastic using versene/trypsin (2 min/370C) and resuspended in 10 ml media. Cell were washed thrice with PBS and centrifugation. 5×10^3 cells were added per well (96 well format) on top of preset Matrigel (50 ul). 50 ul of bioactive supernatant was added per well. Colony outgrowth was monitored over the course of the experiment and photographed after 2 and 5 days.
substance,measurement,setting,value
"LAM 13: PLA2G1B; tammar wallaby polypeptide SEQ ID NO 43, bovine polypeptide SEQ ID NO 103",RFU (anti-apoptotic activity),"[1]; vinblastine, Alamar Blue, Mean RFU 679787, SD RFU 39919, negative control 696444 RFU",779746 RFU
same,anti- or pro-apoptotic activity (RFU versus mean),[1]; text summary of Tables 8-11,anti-apoptotic activity
same,proliferation of cells,[2],increased proliferation of cells
